Results from patent publication US8192962B2, “Processes for detecting toxic substances” (Daikin Industries, Ltd., priority 2001, dated 2012).

System: Unknown protein yeast genes
Assay: DNA chip mRNA expression in yeast, unknown protein yeast genes (Table 1)
Assay type: cell-based, Saccharomyces cerevisiae S288C
How it was run: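 Values are treated/untreated fluorescence ratios from a whole-genome yeast DNA chip hybridized over 12 hours at 65° C with Cy3- or Cy5-labelled cDNA from poly(A) mRNA. Log-phase S288C yeast in YPD at 25° C had received a single toxic chemical for two hours, dosed to slow growth without killing.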

Compound: C=CC=O [(14), acrolein]
- The level of expressed mRNA in the presence of chemical substance/The level of expressed mRNA in the absence of chemical substance (yeast gene YAL053W, incubated two hours with chemical substance): 0.7
- The level of expressed mRNA in the presence of chemical substance/The level of expressed mRNA in the absence of chemical substance (yeast gene YBL048W): 2.0
- The level of expressed mRNA in the presence of chemical substance/The level of expressed mRNA in the absence of chemical substance (yeast gene YBL107C): 2.5
- The level of expressed mRNA in the presence of chemical substance/The level of expressed mRNA in the absence of chemical substance (yeast gene YDL072C, incubated two hours with chemical substance): 1.8
- The level of expressed mRNA in the presence of chemical substance/The level of expressed mRNA in the absence of chemical substance (yeast gene YDL204W, incubated two hours with chemical substance): 2.4
- The level of expressed mRNA in the presence of chemical substance/The level of expressed mRNA in the absence of chemical substance (yeast gene YDL222C, incubated two hours with chemical substance): 1.3
- The level of expressed mRNA in the presence of chemical substance/The level of expressed mRNA in the absence of chemical substance (yeast gene YDR330W, incubated two hours with chemical substance): 1.1
- The level of expressed mRNA in the presence of chemical substance/The level of expressed mRNA in the absence of chemical substance (yeast gene YDR411C, incubated two hours with chemical substance): 0.8
- The level of expressed mRNA in the presence of chemical substance/The level of expressed mRNA in the absence of chemical substance (yeast gene YDR511W, incubated two hours with chemical substance): 2.2
- The level of expressed mRNA in the presence of chemical substance/The level of expressed mRNA in the absence of chemical substance (yeast gene YDR545W, incubated two hours with chemical substance): 0.7
- The level of expressed mRNA in the presence of chemical substance/The level of expressed mRNA in the absence of chemical substance (yeast gene YEL001C, incubated two hours with chemical substance): 1.3
- The level of expressed mRNA in the presence of chemical substance/The level of expressed mRNA in the absence of chemical substance (yeast gene YER004W, incubated two hours with chemical substance): 1.8
- The level of expressed mRNA in the presence of chemical substance/The level of expressed mRNA in the absence of chemical substance (yeast gene YER035W, incubated two hours with chemical substance): 1.0
- The level of expressed mRNA in the presence of chemical substance/The level of expressed mRNA in the absence of chemical substance (yeast gene YER079W, incubated two hours with chemical substance): 1.6
- The level of expressed mRNA in the presence of chemical substance/The level of expressed mRNA in the absence of chemical substance (yeast gene YER106W, incubated two hours with chemical substance): 1.5
- The level of expressed mRNA in the presence of chemical substance/The level of expressed mRNA in the absence of chemical substance (yeast gene YER158C, incubated two hours with chemical substance): 0.9
- The level of expressed mRNA in the presence of chemical substance/The level of expressed mRNA in the absence of chemical substance (yeast gene YER163C, incubated two hours with chemical substance): 1.9
- The level of expressed mRNA in the presence of chemical substance/The level of expressed mRNA in the absence of chemical substance (yeast gene YER175C, incubated two hours with chemical substance): 1.1
- The level of expressed mRNA in the presence of chemical substance/The level of expressed mRNA in the absence of chemical substance (yeast gene YFL006W, incubated two hours with chemical substance): 1.7
- The level of expressed mRNA in the presence of chemical substance/The level of expressed mRNA in the absence of chemical substance (yeast gene YFL010C, incubated two hours with chemical substance): 1.4
- The level of expressed mRNA in the presence of chemical substance/The level of expressed mRNA in the absence of chemical substance (yeast gene YFL024C): 3.3
- The level of expressed mRNA in the presence of chemical substance/The level of expressed mRNA in the absence of chemical substance (yeast gene YFL032W, incubated two hours with chemical substance): 0.6
- The level of expressed mRNA in the presence of chemical substance/The level of expressed mRNA in the absence of chemical substance (yeast gene YGL037C, incubated two hours with chemical substance): 1.0
- The level of expressed mRNA in the presence of chemical substance/The level of expressed mRNA in the absence of chemical substance (yeast gene YGL047W, incubated two hours with chemical substance): 2.3
- The level of expressed mRNA in the presence of chemical substance/The level of expressed mRNA in the absence of chemical substance (yeast gene YGL053W, incubated two hours with chemical substance): 1.1
- The level of expressed mRNA in the presence of chemical substance/The level of expressed mRNA in the absence of chemical substance (yeast gene YGL121C): 5.8
- The level of expressed mRNA in the presence of chemical substance/The level of expressed mRNA in the absence of chemical substance (yeast gene YGL199C, incubated two hours with chemical substance): 0.8
- The level of expressed mRNA in the presence of chemical substance/The level of expressed mRNA in the absence of chemical substance (yeast gene YGR101W, incubated two hours with chemical substance): 0.9
- The level of expressed mRNA in the presence of chemical substance/The level of expressed mRNA in the absence of chemical substance (yeast gene YGR110W): 2.8
- The level of expressed mRNA in the presence of chemical substance/The level of expressed mRNA in the absence of chemical substance (yeast gene YGR130C, incubated two hours with chemical substance): 0.9
- The level of expressed mRNA in the presence of chemical substance/The level of expressed mRNA in the absence of chemical substance (yeast gene YGR154C, incubated two hours with chemical substance): 2.2
- The level of expressed mRNA in the presence of chemical substance/The level of expressed mRNA in the absence of chemical substance (yeast gene YGR221C, incubated two hours with chemical substance): 1.4
- The level of expressed mRNA in the presence of chemical substance/The level of expressed mRNA in the absence of chemical substance (yeast gene YHR138C, incubated two hours with chemical substance): 3.4
- The level of expressed mRNA in the presence of chemical substance/The level of expressed mRNA in the absence of chemical substance (yeast gene YHR199C, incubated two hours with chemical substance): 2.0
- The level of expressed mRNA in the presence of chemical substance/The level of expressed mRNA in the absence of chemical substance (yeast gene YIL023C, incubated two hours with chemical substance): 0.7
- The level of expressed mRNA in the presence of chemical substance/The level of expressed mRNA in the absence of chemical substance (yeast gene YIL041W, incubated two hours with chemical substance): 1.3
- The level of expressed mRNA in the presence of chemical substance/The level of expressed mRNA in the absence of chemical substance (yeast gene YIL087C, incubated two hours with chemical substance): 1.3
- The level of expressed mRNA in the presence of chemical substance/The level of expressed mRNA in the absence of chemical substance (yeast gene YJL057C, incubated two hours with chemical substance): 1.6
- The level of expressed mRNA in the presence of chemical substance/The level of expressed mRNA in the absence of chemical substance (yeast gene YJL066C, incubated two hours with chemical substance): 1.0
- The level of expressed mRNA in the presence of chemical substance/The level of expressed mRNA in the absence of chemical substance (yeast gene YJL082W, incubated two hours with chemical substance): 0.5
- The level of expressed mRNA in the presence of chemical substance/The level of expressed mRNA in the absence of chemical substance (yeast gene YJL151C, incubated two hours with chemical substance): 1.3
- The level of expressed mRNA in the presence of chemical substance/The level of expressed mRNA in the absence of chemical substance (yeast gene YJL152W, incubated two hours with chemical substance): 1.4
- The level of expressed mRNA in the presence of chemical substance/The level of expressed mRNA in the absence of chemical substance (yeast gene YJL161W, incubated two hours with chemical substance): 2.2
- The level of expressed mRNA in the presence of chemical substance/The level of expressed mRNA in the absence of chemical substance (yeast gene YJL171C, incubated two hours with chemical substance): 1.0
- The level of expressed mRNA in the presence of chemical substance/The level of expressed mRNA in the absence of chemical substance (yeast gene YJR008W, incubated two hours with chemical substance): 1.2
- The level of expressed mRNA in the presence of chemical substance/The level of expressed mRNA in the absence of chemical substance (yeast gene YJR054W, incubated two hours with chemical substance): 1.2
- The level of expressed mRNA in the presence of chemical substance/The level of expressed mRNA in the absence of chemical substance (yeast gene YKL071W): 21.9
- The level of expressed mRNA in the presence of chemical substance/The level of expressed mRNA in the absence of chemical substance (yeast gene YKL086W, incubated two hours with chemical substance): 2.9
- The level of expressed mRNA in the presence of chemical substance/The level of expressed mRNA in the absence of chemical substance (yeast gene YKL107W): 3.4
- The level of expressed mRNA in the presence of chemical substance/The level of expressed mRNA in the absence of chemical substance (yeast gene YKL151C, incubated two hours with chemical substance): 1.3
- The level of expressed mRNA in the presence of chemical substance/The level of expressed mRNA in the absence of chemical substance (yeast gene YKL153W, incubated two hours with chemical substance): 1.1
